From patent US20160030416A1, “METHODS OF TREATING B2-BRADYKININ RECEPTOR MEDIATED ANGIOEDEMA” (SHIRE HUMAN GENETIC THERAPIES, INC., priority 2013, published 2016)
pEC50, pIC50, pKi: −log10 of the molar value. Where two headings read alike, the source gives them in different places.

Columns and labels:
[1] = Plasma kinetics, intravenous, beagle dogs; type: in vivo, female beagle dogs; conditions: IV 1 mg/kg
Procedure: CFMQ (HGT3711) was administered to fasted female beagle dogs by a single intravenous injection at 1.0 mg/kg, formulated in 100% PEG200 (Table 10). Blood samples were taken via jugular vein puncture prior to administration and at 0.083 (5 min), 0.25 (15 min), 0.50 (30 min), 1, 4, 8 and 24 hours post dose. Plasma concentrations of CFMQ (HGT3711) were determined by LC-MS/MS and concentrations below the limit of quantitation (1.0 ng/mL) were assigned a value of zero for pharmacokinetic analysis. Nominal dosing concentrations were used in all calculations.

[2] = Pharmacokinetics, single oral gavage, CD-1 mice; type: in vivo, female CD-1 mice; conditions: female, CD-1, mouse, plasma
Procedure: CFMQ (HGT3711) was administered to fasted female CD-1 mice (n=18/dose group) by a single oral gavage at 100, 250 and 450 mg/kg in a dose volume of 5 mL/kg in a spray-dried dispersion formulation (discussed below). Blood samples were taken via cardiocentesis or abdominal vein prior to administration and at 10, 30, 60 (1 hr), 120 (2 hr), 240 (4 hr) and 480 (8 hr) minutes post dose. Plasma concentrations of CFMQ (HGT3711) were determined by LC-MS/MS (liquid chromatography mass spectrometry) and concentrations below the limit of quantitation (3 ng/mL) were assigned a value of zero for pharmacokinetic analysis. Nominal dosing concentrations were used in all calculations.

[3] = In vitro microsomal stability, human; type: in vitro ADME; conditions: Mix
Procedure: In vitro metabolic stability studies were performed to determine hepatic stability in vivo. CFMQ was incubated in liver microsomal preparations from mouse, rat, dog, mini-pig, and humans, as well as an additional study with monkey and human. CFMQ was incubated with human and animal liver microsomes at 0.3 mg/mL at 37° C. for 30 or 60 minutes. Additional reference compounds were incubated as controls. Following incubation, samples were analyzed by HPLC-MS/MS.

[4] = Plasma kinetics, intravenous, CD-1 mice; type: in vivo, female CD-1 mice
Procedure: CFMQ (HGT3711) was administered to fasted female CD-1 mice by a single intravenous injection at 1.0 mg/kg, formulated in 100% PEG200. Blood samples were taken via cardiac puncture prior to administration and at 0.083 (5 min), 0.25 (15 min), 0.50 (30 min), 1, 2, 4, and 8 hours post dose. Plasma concentrations of CFMQ (HGT3711) were determined by LC-MS/MS and concentrations below the limit of quantitation (BLOQ=<1 ng/ml) were assigned a value of zero for pharmacokinetic analysis. Nominal dosing concentrations were used in all calculations.

[5] = test system: BK-induced human umbilical vein contractions; assay: cells; conditions: Homo sapiens, 0.5 h; 30 minute incubation, BK-induced contractions; read-out: EC50, umbilical vein assay
Procedure: The inhibition effect of CFMQ on bradykinin induced […] was examined in an ex vivo functional assay of human umbilical vein contraction, which is considered a gold standard for bradykinin activity measurements. […] Firazyr®). Following a 30 minute incubation, BK-induced vein contractions were initiated in a cumulative manner (final concentration of 10 μM), followed by maximal calibration contraction induction by 10 μM serotonin. The tension increase for each dose response was calculated in relation to the (maximal) response towards serotonin, graphed as a dose-response curve and used to calculate an effective concentration at 50% (EC50) value (FIG. 6)

BZD (peripheral) = target: T1, BZD (peripheral) (Rattus norvegicus, UniProt P16257); assay: Off-target receptor binding: BZD (peripheral)
T1 construct: from tissue
Procedure: To determine the affinity to the B2-bradykinin receptor, CFMQ was compared to a diverse set of receptors and reference agents in an in vitro assay using cells from rat heart, urinary bladder, cerebral cortex, as well as human recombinant cells (CHO and HEK 293) and other cell lines. Each assay included a ligand at a specific concentration (concentration ranging from 0.007-10 nM), in addition to a non-specific ligand (concentration ranging from […]) for incubation periods ranging from 15 minutes to 6 hours at 4°-37° C. The specific binding to the receptors was defined as the difference between the total binding and the nonspecific binding, determined in the presence of an excess of unlabeled CFMQ. The concentration causing a half-maximal inhibition of control specific binding (IC50 values) and inhibition constants (Ki) were determined, and each reference compound was within the accepted limits of the historic average (±0.5 log units).

[6] = female, beagle, dog, plasma, extrapolated to t = 0
[7] = 100 mg/kg, read-out: Average Concentration of HGT3711
[8] = 250 mg/kg, read-out: Average Concentration of HGT3711
[9] = 450 mg/kg, read-out: Average Concentration of HGT3711
[10] = 450 mg/kg, n = 2, read-out: Average Concentration of HGT3711
[11] = female, CD-1, mouse, plasma, IV 1 mg/kg
[12] = female, CD-1, mouse, plasma, IV 1 mg/kg, extrapolated to t = 0

clearance as % of liver blood flow in dog (1.85 L/hr/kg) [1]: approximately 14%
AUC(0-inf) ([1]; female, beagle, dog, plasma): 5270 ng·h/mL
AUC(0-t) ([1]; female, beagle, dog, plasma): 5160 ng·h/mL
clearance ([1]; female, beagle, dog, plasma): 4.17 mL/min/kg
half-life ([1]; female, beagle, dog, plasma): 2.69 h
concentration at 0 hr ([1]; female, beagle, dog, plasma, 0 hr, read-out: Average Concentration of HGT3711): 0 ng/mL
concentration at 0.083 hr ([1]; female, beagle, dog, plasma, 0.083 hr, read-out: Average Concentration of HGT3711): 1840 ng/mL
concentration at 0.25 hr ([1]; female, beagle, dog, plasma, 0.25 hr, read-out: Average Concentration of HGT3711): 1320 ng/mL
concentration at 0.5 hr ([1]; female, beagle, dog, plasma, 0.50 hr, read-out: Average Concentration of HGT3711): 1070 ng/mL
concentration at 1 hr ([1]; female, beagle, dog, plasma, 1.0 hr, read-out: Average Concentration of HGT3711): 717 ng/mL
concentration at 4 hr ([1]; female, beagle, dog, plasma, 4.0 hr, read-out: Average Concentration of HGT3711): 377 ng/mL
concentration at 8 hr ([1]; female, beagle, dog, plasma, 8.0 hr, read-out: Average Concentration of HGT3711): 180 ng/mL
C0 [1, 6]: 2180 ng/mL
Tmax [1, 6]: 0 h
Vd ([1]; female, beagle, dog, plasma, read-out: Vss): 0.75 L/kg
AUC(0-inf) ([2]; 100 mg/kg): 10500 ng·h/mL
AUC(0-t) ([2]; 100 mg/kg): 10500 ng·h/mL
Cmax ([2]; 100 mg/kg): 5300 ng/mL
concentration at 10 min [2, 7]: 5300 ng/mL
concentration at 30 min [2, 7]: 4100 ng/mL
concentration at 60 min [2, 7]: 5170 ng/mL
concentration at 120 min [2, 7]: 2200 ng/mL
concentration at 240 min [2, 7]: 78 ng/mL
concentration at 480 min [2, 7]: 18 ng/mL
AUC(0-inf) ([2]; 250 mg/kg): 24500 ng·h/mL
AUC(0-t) ([2]; 250 mg/kg): 24400 ng·h/mL
Cmax ([2]; 250 mg/kg): 13300 ng/mL
concentration at 10 min [2, 8]: 6250 ng/mL
concentration at 30 min [2, 8]: 13300 ng/mL
concentration at 60 min [2, 8]: 10400 ng/mL
concentration at 120 min [2, 8]: 4570 ng/mL
concentration at 240 min [2, 8]: 854 ng/mL
concentration at 480 min [2, 8]: 45 ng/mL
AUC(0-inf) ([2]; 450 mg/kg): 40900 ng·h/mL
AUC(0-t) ([2]; 450 mg/kg): 40800 ng·h/mL
Cmax ([2]; 450 mg/kg): 15800 ng/mL
concentration at 10 min [2, 9]: 11600 ng/mL
concentration at 30 min [2, 9]: 14600 ng/mL
concentration at 60 min [2, 10]: 15800 ng/mL
concentration at 120 min [2, 10]: 6440 ng/mL
concentration at 240 min [2, 9]: 3370 ng/mL
concentration at 480 min [2, 9]: 88 ng/mL
% Remaining [30 minutes] ([3]; 30 minutes): 70-91%
% Remaining [60 minutes] ([3]; 60 minutes): 50-85%
plasma concentration ([4]; IV 1 mg/kg, by 4 hours post-dose, BLOQ=<1 ng/ml): below the BLOQ
AUC(0-inf) [4, 11]: 70.9 ng·h/mL
clearance [4, 11]: 235 mL/min/kg
half-life [4, 11]: 0.56 h
concentration at 0.083 hr ([4]; female, CD-1, mouse, plasma, IV 1 mg/kg, 0.083 hr, read-out: Average Concentration of HGT3711): 162 ng/mL
concentration at 0.25 hr ([4]; female, CD-1, mouse, plasma, IV 1 mg/kg, 0.25 hr, read-out: Average Concentration of HGT3711): 92.9 ng/mL
concentration at 0.5 hr ([4]; female, CD-1, mouse, plasma, IV 1 mg/kg, 0.50 hr, read-out: Average Concentration of HGT3711): 22.4 ng/mL
concentration at 1 hr ([4]; female, CD-1, mouse, plasma, IV 1 mg/kg, 1.0 hr, read-out: Average Concentration of HGT3711): 12.6 ng/mL
concentration at 2 hr ([4]; female, CD-1, mouse, plasma, IV 1 mg/kg, 2.0 hr, read-out: Average Concentration of HGT3711): 3.48 ng/mL
C0 [4, 12]: 214 ng/mL
Tmax [4, 12]: 0 h
AUC(0-t) ([4]; female, CD-1, mouse, plasma, IV 1 mg/kg, read-out: AUClast ± SE): 68.1 ng·h/mL
Vd ([4]; female, CD-1, mouse, plasma, IV 1 mg/kg, read-out: Vss): 6.3 L/kg
pEC50 [5]: 8.14
pIC50 (BZD (peripheral)): 5.85
pKi (BZD (peripheral)): 5.92
nH (BZD (peripheral)): 1.7
inhibition at 10 µM (BZD (peripheral); CFMQ at 10 μM): 93%
Structure (SMILES): Cc1cc(Cl)c(COc2cccc3c(-n4cc(F)cn4)cc(C)nc23)c(Cn2cccc(C#N)c2=O)n1 [CFMQ, 1-((4-Chloro-3-(((4-(4-fluoro-1H-pyrazol-1-yl)-2-methylquinolin-8-yl)oxy)methyl)-6-methylpyridin-2-yl)methyl)-2-oxo-1,2-dihydropyridine-3-carbonitrile]
adverse reactions ([4]; IV 1.0 mg/kg, mice): No adverse reactions were observed
